“Also recorded” adds a separate entry of the source.
Key:
Assay type in all cases: in vivo, mice
[1] = system: goblet cells; assay: Goblet cell identification by PAS staining in the cornea, stem cell deficiency model; details: Fosaprepitant 1 mg/mL (FOSA 1); p<0.05
Text: Eight-week-old male mice C57BL6/N (Charles River, Calco, Italy) (WT mice, n=18) and Tac1-deficient B6.Cg-Tac1tm1Bbm/J (Jackson Laboratories, Bar Harbor, Me., USA) (TAC1-KO mice, n=18) were used in all experiments. TAC1-KO mice are homozygous null for the Tac1 gene. […] The corneal thickness and transparency as well as the corneal nerve length are similar to C57BL/6 mice [Barbariga M, Rabiolo A, Fonteyne P, Bignami F, Rama P, Ferrari G. The effect of aging on nerve morphology and substance P expression in mouse and human corneas. Investig Ophthalmol Vis Sci 2018; 59:5329-35. https://doi.org/10.1167/iovs.18-24707.]. Each animal was anesthetized with an intraperitoneal injection of tribromoethanol (250 mg/kg) and a topical anesthetic was applied to their ocular surface prior to the surgical procedure. […]
To identify the presence of goblet cells, periodic acid Schiff (PAS) staining was performed following the same experimental protocol previously described [Ferrari G, Bignami F, Giacomini C, Franchini S, Rama P. Safety and efficacy of topical infliximab in a mouse model of ocular surface scarring. […] The number of PAS+ cells was quantified using Image J software (National Institutes of Health, Bethesda, Md., USA), and the results were expressed as PAS+ cells per section.

[2] = system: CD45+ cells; assay: CD45+ inflammatory cell infiltration by immunohistochemistry, acute GVHD mouse model; details: Fosaprepitant 10 mg/mL topically six times a day, day 29
Protocol: (§1) 10-week-old male BALB/C and C57BL/6N mice (Charles River Laboratory, Lecco, Italy) were used for all the experiments (n=5/each group). All mice were free from ocular surface disease at baseline. The housing conditions were controlled (temperature 22° C., light from 07:00-19:00, humidity 50%-60%), and fresh food and water were freely available. The animals were monitored 3 times per week for 28 days post-transplantation for in vivo slit-lamp microscopy imaging, ocular surface score and systemic GVHD score (FIG. 11A). Carbon dioxide inhalation and subsequent cervical dislocation were applied to euthanize the animals. All the experiments were approved by the Animal Care and Use Committee of the IRCCS San Raffaele Scientific Institute, in accordance with the ARVO Statement for the Use of Animals in Ophthalmic and Vision Research.
(§2) Allogenic BMT was conducted using the C57BL/6N and BALB/c mice as transplant donors and recipients, respectively. The recipient mice received total body irradiation (TBI) (900 cGy divided in two fractions) from a Cs source 1 day before the transplantation. The donor C57BL/6N mice were sacrificed on dry ice and they femur and spleen were harvested. The bones were gently crushed manually using a sterile stick, and bone marrow (BM) cells were released by mixing the fragments of bones with RPMI. The suspension of BM cells was filtered to remove the impurities inside. The spleens were also gently crushed into a cell suspension and filtered. Inventors suspended the BM cells and splenic cells with RPMI and adjusted the density of cells to 1×10^6/[…] and 2×10^6/[…], respectively. […]
(§3) Mice were sacrificed 28 days after BM transplantation (Day 29 post irradiation) by carbon dioxide inhalation. […] Following three washes with PBS-T, sections were incubated in anti-goat HRP for 15 minutes and then detected with a goat-on-rodent HRP-Polymer Kit (Biocare Medical). Primary antibody labeling was detected using brown DAB substrate (Vector Laboratories, Burlingame, Calif., USA). […]

[3] = system: CD3+ cells; assay: CD3+ cell (T cell) infiltration by immunohistochemistry, acute GVHD mouse model; details: Fosaprepitant 10 mg/mL topically six times a day; day 29; p<0.001
Protocol: as §1, §2, §3

C[C@@H](O[C@H]1OCCN(Cc2nc(=O)n(P(=O)(O)O)[nH]2)[C@H]1c1ccc(F)cc1)c1cc(C(F)(F)F)cc(C(F)(F)F)c1 [Fosaprepitant, [3-{[(2R,3S)-2-[(1R)-1-[3,5-bis(trifluoromethyl)phenyl]ethoxy]-3-(4-fluorophenyl)morpholin-4-yl]methyl}-5-oxo-2H-1,2,4-triazol-1-yl]phosphonic acid]
PAS+ cells (goblet cells) in the cornea compared to WT [1]: Reduced number; also recorded: decrease
CD45+ cell infiltration in the lacrimal gland ([2]; among all groups): no significant difference
CD45+ cell infiltration in the conjunctiva ([2]; p<0.0001): significantly reduced
CD45+ cell infiltration in the cornea ([2]; p<0.01): significantly reduced
CD3+ cells infiltrating the conjunctiva [3]: reduced; also recorded: significantly decreased
CD3+ cells infiltrating the cornea [3]: reduced; also recorded: significantly decreased
CD3+ cells infiltrating the lacrimal gland [3]: reduced; also recorded: significantly decreased
